Data from patent publication US20250041311A1, “Compound For Treating or Preventing Vimentin-Mediated Diseases” (Aluda Pharmaceuticals, Inc., priority 2021, published 2025).
“Also recorded” adds a separate entry of the source. Like-named read-outs stand apart in the source and are kept apart here.

Assays:
[1] = tested on: A549, AGS, U87, SMMC-7721, HUH7; test: Cancer cell growth in vitro; assay type: cell-based, human; conditions: any concentration, highest 10 μM
Procedure: (§2) Cell culture: Human non-small cell lung cancer A549 cells, human pancreatic cancer PANC-1 cells, human glioma U87 cells, human liver cancer HUH7 cells and SMMC-7721 cells, and human gastric cancer AGS cells were purchased from ATCC or Stem Cell Bank of Chinese Academy of Sciences (Shanghai, China). Cells were cultured in RPMI1640 medium containing 10% fetal bovine serum (Sigma, USA), 100 U penicillin and 100 μg/ml streptomycin (Gibco, USA) at 37° C. in a humidified atmosphere containing 5% CO2.

HEK293T cells = test: Liposome-mediated pMAX-GFP transfection (endocytosis and endosomal trafficking); assay type: cell-based
BALB/c mice = test: Circulating plasma exosomes in mice after oral dosing; assay type: in vivo, mouse; conditions: 100 mg/kg once a day for 14 days by gavage, vs vehicle
Procedure: In vivo experiments: 6- to 8-week-old BALB/c mice (18 to 20 g) were purchased from Beijing Life River Experimental Animal Technology Co., Ltd. (Beijing, China) and housed at the Experimental Animal Center of Nanjing University of Traditional Chinese Medicine. Animals were maintained at 22±2° C. on a regular 12h/12h light-dark cycle with free access to food and water. All animal experiments were approved by the Ethics Committee of Nanjing University of Traditional Chinese Medicine. Animal care was provided according to IACUC-approved guidelines.
Twenty-four hours after the last administration, the mice were anesthetized with pentobarbital sodium, from which blood samples were collected, and then the mice were euthanized. […].
Isolation of exosomes from mouse plasma: To obtain plasma for exosome isolation, blood was centrifuged at 500 g for 5 min at 4° C.; 2000 g for 15 min; and treated with a solution of 10000 g for 20 min to remove cells, debris and large vesicles. The crude exosome pellet was resuspended in 60 ml of cold PBS (Invitrogen), and then the exosome suspension was centrifuged at 100,000 g for 70 min at 4° C. For sucrose density gradient centrifugation, mix the washed exosome pellet with 2 mL of […] sucrose solution and add to a sucrose step gradient column (10 2 ml sucrose gradients from […] using 20 mM HEPES as diluent). […]

A549 cells [2] = test: Wound healing assay; assay type: cell-based, human; conditions: different concentrations of C52, 48 h, dose-dependent
Procedure: Wound healing assay: Cells were seeded in 6-well plates containing complete medium and cultured at 37° C. in a humidified air environment containing 5% CO2. […] […] The wound area and migrated cells within the wound area were photographed using a phase-contrast microscope. The wound area was measured using Image J software.

EAE mice = test: MOG-induced experimental autoimmune encephalomyelitis (EAE) mouse model; assay type: in vivo
[3] = tested on: 84 selected human cancer-associated proteins in A549 cells; conditions: 3 μM C52 or 5 μM C52 for 48 h
Procedure: as §2
A total of 200 g of lysate protein was run on one Human XL Tumor Array (R&D Systems, Abingdon, UK). Followed the manufacturer's instructions exactly. The protein chip membrane was covered with plastic film and exposed to X-ray film for 8 minutes. Optical density on exposed X-ray film (hu.q, HQ-320XT, China) was quantified using a transmission mode scanner (EPSON, Beijing, China) and analyzed using Image J software.

A549 cells [4] = test: Transwell cell invasive growth assay; assay type: cell-based, human; conditions: different concentrations of C52, 24 h
Procedure: (§1) Cell invasive growth assay: Inoculate 1×10E4 cells suspended in 100 μL serum-free RPMI-1640 medium into each upper chamber of a […] Transwell pre-coated with Matrigel and added with DMSO or […] (Cat.3422, Corning, NY, USA). in different concentrations. Add 600 μL of RPMI-1640 containing 10% FBS to the bottom chamber of each well. Cells in transwell plates were cultured for 24 h. Cells on the upper surface were gently wiped with a moistened cotton swab, while cells that passed through the Matrigel to the lower surface of the membrane were fixed with paraformaldehyde and stained with 0.1% crystal violet. These cells on the lower surface were considered invasive and counted in 5 random fields under an inverted microscope. The number of invasive cells was counted by Image J software.

PANC-1 cells [5] = test: Transwell cell invasive growth assay; assay type: cell-based, human; conditions: different concentrations of C52, 24 h; more pronounced than in A549
Procedure: as §1

PANC-1 cells [6] = test: Wound healing assay; assay type: cell-based, human; conditions: different concentrations of C52, 24 h, dose-dependent
Procedure: Wound healing assay: Cells were seeded in 6-well plates containing complete medium and cultured at 37° C. in a humidified air environment containing 5% CO2. […] Then, the cells were washed 3 times with PBS, and then incubated with serum-free RPMI-1640 medium containing different concentrations of […] for 24 h. The wound area and migrated cells within the wound area were photographed using a phase-contrast microscope. The wound area was measured using Image J software.

[7] = C52 low and medium doses (10 or 30 mg/kg), oral once a day, vs vehicle

Procedure for U87 cells: Western blotting: Exosomes from cultures in different conditions were collected and purified by a classical differential centrifugation protocol, and then lysed with PMSF-containing RIPA buffer (Beyond Biotechnology, Shanghai, China). The lysate was centrifuged to remove insoluble material. The concentration of protein was determined by enhanced BCA protein assay kit (Beyontian Biotechnology, Shanghai, China). 40 g of proteins were separated by sodium dodecyl sulfate-polyacrylamide gel electrophoresis (SDS-PAGE) and transferred to a polyvinylidene difluoride membrane (Merck Millipore). Membranes were blocked with 5% milk for 1 h and then incubated with primary antibodies overnight at 4° C. Membranes were washed 3 times and then incubated with secondary antibodies for 1 h at room temperature. Bands were detected by Gel Imaging System (Bio-Rad, USA) and measured by Image J. The primary antibodies used were rabbit anti-β-actin, GAPHD, CD63, CD9, TSG101 and vimentin (Abcam, UK).

SMILES: O=C(Nc1ccc(F)cc1)Nc1ccc(Nc2nc(/C=C/c3ccccc3)nc(N3CCOCC3)n2)cc1 [Compound C52]
- effect on the growth of cancer cells [1]: no effect
- amount of exosomal markers CD9 and CD63 inside the cells (U87 cells): did not reduce
- extracellular levels of exosomal markers CD9 and CD63 (U87 cells): reduced
- CD9 in the cell culture medium (U87 cells; vimentin-knockdown U87 Vim+/- cells, 2 μM C52, 72 h): further reduction
- inhibition of GFP expression (maximum) (HEK293T cells; C52 added 4 h after transfection, at 0.316 μM): approximately 40%
- EC50 (HEK293T cells; C52 after transfection, read-out: EC50 for inhibition of endosomal trafficking): 82 nM
- EC50 (HEK293T cells; C52 before transfection, read-out: EC50 for inhibition of endocytosis): 98 nM
- EC50 (HEK293T cells; C52 during entire transfection period, read-out: EC50 for inhibition of the whole process): 45 nM
- inhibition of GFP (HEK293T cells; C52 just before transfection only, at 0.316 μM): approximately 15%
- inhibition of GFP (maximum) (HEK293T cells; C52 just before transfection only, at 10 μM): approximately 40%
- maximum inhibition rate of GFP expression (HEK293T cells; C52 present throughout the transfection, at 0.316 μM): about 50%
- inhibition of GFP signal increase (Pseudovirus-2019-nCoV): as strong as that by the positive control
- IC50 (Pseudovirus-2019-nCoV; read-out: IC50 of inhibition of pseudovirus infection): < 50 nM
- exosomal markers CD63 and TSG101 in plasma exosomes (BALB/c mice): significantly decreased
- closure rate of the gap size (A549 cells [2]): significantly decreased
- animal weight loss (EAE mice; [7]): less weight loss; also recorded: reduced
- clinical disease scores (EAE mice; [7]): lower; also recorded: improved
- disease onset (EAE mice; [7]): relatively delayed
- therapeutic effect in EAE (EAE mice; mouse, in vivo, po, 100 mg/kg): no therapeutic effect
- effect on protein levels of vimentin and other signaling molecules involved in cell proliferation [3]: little or no effect
- migratory ability (Transwell) (A549 cells [4]): hindered the migratory ability
- migratory ability (Transwell) (PANC-1 cells [5]): hindered the migratory ability
- closure rate of the gap size (PANC-1 cells [6]): significantly decreased
